Test results published in ChEMBL document CHEMBL5649169 (ChemMedChem, 2018).

Experiments:
[1] = target: Platelet-derived growth factor receptor beta (Homo sapiens) (UniProt P09619)
[2] = target: Large ribosomal subunit protein uL1 (Homo sapiens) (UniProt P62906)
[3] = target: Bifunctional phosphoribosylaminoimidazole carboxylase/phosphoribosylaminoimidazole succinocarboxamide synthetase (Homo sapiens) (UniProt P22234)
[4] = target: Lon protease homolog, mitochondrial (Homo sapiens) (UniProt P36776)
[5] = target: Lysine--tRNA ligase (Homo sapiens) (UniProt Q15046)
[6] = target: Aurora kinase A (Homo sapiens) (UniProt O14965)
[7] = target: Microtubule-actin cross-linking factor 1, isoforms 1/2/3/4/5 (Homo sapiens) (UniProt Q9UPN3)
[8] = target: Small ribosomal subunit protein uS12 (Homo sapiens) (UniProt P62266)
[9] = target: Receptor-interacting serine/threonine-protein kinase 3 (Homo sapiens) (UniProt Q9Y572)
[10] = target: Dual specificity tyrosine-phosphorylation-regulated kinase 1A (Homo sapiens) (UniProt Q13627)
[11] = target: Mitogen-activated protein kinase 14 (Homo sapiens) (UniProt Q16539)
[12] = target: Eukaryotic translation initiation factor 3 subunit A (Homo sapiens) (UniProt Q14152)
[13] = target: Serine/threonine-protein kinase STK11 (Homo sapiens) (UniProt Q15831)
[14] = target: High mobility group protein B2 (Homo sapiens) (UniProt P26583)
[15] = target: High mobility group protein B1 (Homo sapiens) (UniProt P09429)
[16] = target: Receptor-interacting serine/threonine-protein kinase 2 (Homo sapiens) (UniProt O43353)
[17] = target: Myosin light polypeptide 6 (Homo sapiens) (UniProt P60660)
[18] = target: Serine/arginine-rich splicing factor 7 (Homo sapiens) (UniProt Q16629)
[19] = target: Large ribosomal subunit protein uL14 (Homo sapiens) (UniProt P62829)
[20] = target: Mitogen-activated protein kinase kinase kinase 5 (Homo sapiens) (UniProt Q99683)
[21] = target: Histone deacetylase 2 (Homo sapiens) (UniProt Q92769)
[22] = target: 14-3-3 protein theta (Homo sapiens) (UniProt P27348)
[23] = target: Small ribosomal subunit protein uS7 (Homo sapiens) (UniProt P46782)
[24] = target: Vacuolar protein sorting-associated protein 35 (Homo sapiens) (UniProt Q96QK1)
[25] = target: 5'-3' exoribonuclease 2 (Homo sapiens) (UniProt Q9H0D6)
[26] = target: Ephrin type-A receptor 4 (Homo sapiens, UniProt P54764)
[27] = target: Kinetochore-associated protein 1 (Homo sapiens) (UniProt P50748)
[28] = target: tRNA N6-adenosine threonylcarbamoyltransferase (Homo sapiens) (UniProt Q9NPF4)
[29] = target: T-complex protein 1 subunit gamma (Homo sapiens) (UniProt P49368)
[30] = target: ATP synthase F(1) complex subunit delta, mitochondrial (Homo sapiens) (UniProt P30049)
[31] = target: Aspartate--tRNA ligase, cytoplasmic (Homo sapiens) (UniProt P14868)
[32] = target: Phosphatidylinositol 4-kinase alpha (Homo sapiens) (UniProt P42356)
[33] = target: Stathmin-2 (Homo sapiens) (UniProt Q93045)
[34] = species on record: Homo sapiens
[35] = target: 60 kDa heat shock protein, mitochondrial (Homo sapiens) (UniProt P10809)
[36] = target: Coatomer subunit gamma-1 (Homo sapiens) (UniProt Q9Y678)
[37] = target: Structural maintenance of chromosomes protein 2 (Homo sapiens) (UniProt O95347)
[38] = target: Transport and Golgi organization protein 1 homolog (Homo sapiens) (UniProt Q5JRA6)
[39] = target: Translocation protein SEC63 homolog (Homo sapiens) (UniProt Q9UGP8)
[40] = target: Pyruvate dehydrogenase E1 component subunit beta, mitochondrial (Homo sapiens) (UniProt P11177)
[41] = target: Ephrin type-B receptor 3 (Homo sapiens) (UniProt P54753)
[42] = target: Ketosamine-3-kinase (Homo sapiens) (UniProt Q9HA64)
[43] = target: Casein kinase I isoform gamma-1 (Homo sapiens) (UniProt Q9HCP0)
[44] = target: Ephrin type-A receptor 1 (Homo sapiens) (UniProt P21709)
[45] = target: Coatomer subunit gamma-2 (Homo sapiens) (UniProt Q9UBF2)
[46] = target: Serine/threonine-protein kinase/endoribonuclease IRE2 (Homo sapiens) (UniProt Q76MJ5)
Further: assay method not described here.

60 kDa heat shock protein, mitochondrial (Homo sapiens), sequence (P10809 whole entry): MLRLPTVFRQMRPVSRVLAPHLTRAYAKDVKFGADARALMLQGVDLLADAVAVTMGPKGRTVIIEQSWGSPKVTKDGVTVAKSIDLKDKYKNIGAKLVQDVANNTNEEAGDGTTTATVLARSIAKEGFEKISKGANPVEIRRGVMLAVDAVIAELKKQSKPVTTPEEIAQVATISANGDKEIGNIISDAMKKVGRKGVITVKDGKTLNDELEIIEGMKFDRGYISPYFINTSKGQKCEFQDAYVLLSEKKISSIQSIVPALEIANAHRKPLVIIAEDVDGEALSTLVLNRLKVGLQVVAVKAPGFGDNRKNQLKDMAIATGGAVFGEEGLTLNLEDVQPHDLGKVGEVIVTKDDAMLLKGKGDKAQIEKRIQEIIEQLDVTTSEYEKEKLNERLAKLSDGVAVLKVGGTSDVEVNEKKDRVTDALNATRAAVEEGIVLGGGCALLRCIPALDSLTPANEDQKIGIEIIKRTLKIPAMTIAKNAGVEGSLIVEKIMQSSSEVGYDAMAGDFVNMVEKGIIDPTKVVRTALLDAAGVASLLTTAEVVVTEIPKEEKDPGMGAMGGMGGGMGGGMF
Casein kinase I isoform gamma-1 (Homo sapiens), sequence (Q9HCP0 whole entry, looked up, canonical isoform): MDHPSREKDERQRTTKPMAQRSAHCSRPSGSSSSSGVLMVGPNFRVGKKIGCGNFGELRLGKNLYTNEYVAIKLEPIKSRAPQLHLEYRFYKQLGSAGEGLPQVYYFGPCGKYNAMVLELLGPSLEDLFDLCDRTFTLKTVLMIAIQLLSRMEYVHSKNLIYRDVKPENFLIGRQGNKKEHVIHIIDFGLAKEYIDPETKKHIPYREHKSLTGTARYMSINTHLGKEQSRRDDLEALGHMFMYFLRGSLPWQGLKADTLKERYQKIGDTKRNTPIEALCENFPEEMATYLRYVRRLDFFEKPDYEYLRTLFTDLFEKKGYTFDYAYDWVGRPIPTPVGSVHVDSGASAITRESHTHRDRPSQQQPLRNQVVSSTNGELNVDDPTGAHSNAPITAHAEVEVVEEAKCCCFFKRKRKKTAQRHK
tRNA N6-adenosine threonylcarbamoyltransferase (Homo sapiens), sequence (Q9NPF4 whole entry): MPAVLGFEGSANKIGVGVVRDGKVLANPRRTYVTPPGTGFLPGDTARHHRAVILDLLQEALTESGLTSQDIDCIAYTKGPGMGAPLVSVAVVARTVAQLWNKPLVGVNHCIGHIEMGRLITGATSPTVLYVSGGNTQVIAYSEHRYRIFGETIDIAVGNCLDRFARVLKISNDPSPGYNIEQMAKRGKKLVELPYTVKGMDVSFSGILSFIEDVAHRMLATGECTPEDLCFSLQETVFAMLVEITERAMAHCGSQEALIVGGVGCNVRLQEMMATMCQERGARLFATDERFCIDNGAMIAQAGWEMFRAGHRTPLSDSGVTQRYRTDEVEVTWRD
Ketosamine-3-kinase (Homo sapiens), sequence (Q9HA64 whole entry, canonical isoform): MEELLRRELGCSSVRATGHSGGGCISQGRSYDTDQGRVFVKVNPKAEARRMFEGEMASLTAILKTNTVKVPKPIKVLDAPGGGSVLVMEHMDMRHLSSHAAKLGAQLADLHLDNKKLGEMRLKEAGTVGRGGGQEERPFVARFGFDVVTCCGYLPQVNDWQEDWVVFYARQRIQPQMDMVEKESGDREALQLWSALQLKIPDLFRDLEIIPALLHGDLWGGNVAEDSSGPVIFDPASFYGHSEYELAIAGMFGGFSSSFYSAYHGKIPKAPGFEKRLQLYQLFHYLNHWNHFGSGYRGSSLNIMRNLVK
Lon protease homolog, mitochondrial (Homo sapiens), sequence (P36776 whole entry): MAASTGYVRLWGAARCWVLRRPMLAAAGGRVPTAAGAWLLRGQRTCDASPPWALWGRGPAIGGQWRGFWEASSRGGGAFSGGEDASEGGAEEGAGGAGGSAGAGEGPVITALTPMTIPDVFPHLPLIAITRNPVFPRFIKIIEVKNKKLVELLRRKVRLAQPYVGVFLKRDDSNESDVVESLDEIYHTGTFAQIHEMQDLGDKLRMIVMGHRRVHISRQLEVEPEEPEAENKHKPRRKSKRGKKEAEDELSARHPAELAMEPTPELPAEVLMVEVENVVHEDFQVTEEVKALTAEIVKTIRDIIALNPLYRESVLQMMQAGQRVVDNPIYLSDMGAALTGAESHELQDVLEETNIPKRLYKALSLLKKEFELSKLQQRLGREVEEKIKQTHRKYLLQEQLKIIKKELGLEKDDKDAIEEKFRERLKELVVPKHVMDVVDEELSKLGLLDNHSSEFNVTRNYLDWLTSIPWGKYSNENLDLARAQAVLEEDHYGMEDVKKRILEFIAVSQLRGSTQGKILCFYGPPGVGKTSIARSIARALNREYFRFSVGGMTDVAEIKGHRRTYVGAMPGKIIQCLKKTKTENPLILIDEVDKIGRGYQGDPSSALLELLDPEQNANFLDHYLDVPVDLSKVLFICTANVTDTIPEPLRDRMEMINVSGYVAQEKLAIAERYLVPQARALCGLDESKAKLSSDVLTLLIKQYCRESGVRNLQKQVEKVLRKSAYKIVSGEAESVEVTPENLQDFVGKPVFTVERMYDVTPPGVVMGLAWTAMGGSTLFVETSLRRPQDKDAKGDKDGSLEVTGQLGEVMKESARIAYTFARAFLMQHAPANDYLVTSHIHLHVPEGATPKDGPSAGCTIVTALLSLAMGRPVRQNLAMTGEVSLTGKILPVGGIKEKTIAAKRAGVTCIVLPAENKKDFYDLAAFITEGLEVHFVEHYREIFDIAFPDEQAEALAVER
Coatomer subunit gamma-1 (Homo sapiens), sequence (Q9Y678 whole entry): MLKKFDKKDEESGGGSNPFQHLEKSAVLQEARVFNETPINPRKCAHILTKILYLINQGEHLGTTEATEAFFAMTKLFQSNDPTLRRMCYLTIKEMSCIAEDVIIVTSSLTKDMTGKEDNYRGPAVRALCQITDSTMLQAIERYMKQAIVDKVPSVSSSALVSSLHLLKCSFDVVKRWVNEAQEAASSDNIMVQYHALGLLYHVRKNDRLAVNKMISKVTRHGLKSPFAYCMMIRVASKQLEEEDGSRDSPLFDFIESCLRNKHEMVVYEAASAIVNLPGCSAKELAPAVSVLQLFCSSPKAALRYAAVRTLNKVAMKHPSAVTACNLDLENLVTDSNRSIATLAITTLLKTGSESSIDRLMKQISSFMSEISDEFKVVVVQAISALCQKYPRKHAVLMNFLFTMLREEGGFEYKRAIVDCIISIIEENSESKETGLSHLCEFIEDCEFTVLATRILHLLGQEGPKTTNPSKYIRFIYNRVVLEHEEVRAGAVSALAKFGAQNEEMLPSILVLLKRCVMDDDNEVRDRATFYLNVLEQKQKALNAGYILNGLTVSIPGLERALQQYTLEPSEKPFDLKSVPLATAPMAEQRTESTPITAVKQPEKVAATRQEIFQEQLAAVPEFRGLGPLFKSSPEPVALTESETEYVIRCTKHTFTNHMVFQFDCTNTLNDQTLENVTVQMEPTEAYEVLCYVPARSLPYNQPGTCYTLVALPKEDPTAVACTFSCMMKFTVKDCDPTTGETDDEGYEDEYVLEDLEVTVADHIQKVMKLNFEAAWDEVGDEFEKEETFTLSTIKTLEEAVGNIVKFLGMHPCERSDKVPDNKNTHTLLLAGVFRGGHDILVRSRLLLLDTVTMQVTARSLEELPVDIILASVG
Mitogen-activated protein kinase kinase kinase 5 (Homo sapiens), sequence (Q99683 whole entry): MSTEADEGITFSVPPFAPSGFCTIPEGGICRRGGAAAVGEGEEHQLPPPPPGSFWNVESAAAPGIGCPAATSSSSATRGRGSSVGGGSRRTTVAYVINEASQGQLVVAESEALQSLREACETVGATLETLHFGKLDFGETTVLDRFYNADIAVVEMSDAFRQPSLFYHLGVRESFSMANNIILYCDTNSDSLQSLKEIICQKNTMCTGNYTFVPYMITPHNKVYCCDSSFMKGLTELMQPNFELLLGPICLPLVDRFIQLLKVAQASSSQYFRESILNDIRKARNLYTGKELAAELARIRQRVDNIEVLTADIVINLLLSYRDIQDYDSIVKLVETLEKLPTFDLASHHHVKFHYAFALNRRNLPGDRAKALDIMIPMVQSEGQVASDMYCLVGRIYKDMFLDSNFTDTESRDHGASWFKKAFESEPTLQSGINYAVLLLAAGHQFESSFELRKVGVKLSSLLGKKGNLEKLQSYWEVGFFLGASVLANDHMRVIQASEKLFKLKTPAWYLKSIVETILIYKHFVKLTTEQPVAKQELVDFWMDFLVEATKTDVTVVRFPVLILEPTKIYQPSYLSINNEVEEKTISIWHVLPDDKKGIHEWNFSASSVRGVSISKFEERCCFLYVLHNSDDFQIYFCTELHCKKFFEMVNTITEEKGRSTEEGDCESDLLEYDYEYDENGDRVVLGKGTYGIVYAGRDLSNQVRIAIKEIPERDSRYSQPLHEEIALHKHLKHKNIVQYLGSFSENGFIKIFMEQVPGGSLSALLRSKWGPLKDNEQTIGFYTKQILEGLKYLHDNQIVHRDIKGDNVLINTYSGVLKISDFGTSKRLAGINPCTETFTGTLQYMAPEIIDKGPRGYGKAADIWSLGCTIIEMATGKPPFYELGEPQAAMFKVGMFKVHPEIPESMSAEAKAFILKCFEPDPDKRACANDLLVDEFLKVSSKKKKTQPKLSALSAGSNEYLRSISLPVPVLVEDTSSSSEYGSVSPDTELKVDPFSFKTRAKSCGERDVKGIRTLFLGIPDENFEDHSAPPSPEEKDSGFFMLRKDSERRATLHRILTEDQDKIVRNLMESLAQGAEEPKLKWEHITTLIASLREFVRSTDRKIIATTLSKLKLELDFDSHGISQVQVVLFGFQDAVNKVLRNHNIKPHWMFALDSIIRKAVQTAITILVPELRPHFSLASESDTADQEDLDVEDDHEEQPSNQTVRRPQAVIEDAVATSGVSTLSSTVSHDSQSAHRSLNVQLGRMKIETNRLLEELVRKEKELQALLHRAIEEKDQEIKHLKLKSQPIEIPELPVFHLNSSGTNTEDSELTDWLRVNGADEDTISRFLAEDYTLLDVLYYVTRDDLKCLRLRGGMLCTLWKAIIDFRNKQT
ATP synthase F(1) complex subunit delta, mitochondrial (Homo sapiens), sequence (P30049 whole entry, one chain of several): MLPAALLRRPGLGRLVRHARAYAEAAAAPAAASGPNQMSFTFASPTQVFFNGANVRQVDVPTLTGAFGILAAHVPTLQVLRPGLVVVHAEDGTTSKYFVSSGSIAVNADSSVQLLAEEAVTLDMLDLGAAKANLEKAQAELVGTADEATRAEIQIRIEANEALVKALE

`Cc1ccc(C(=O)Nc2cccc(C(F)(F)F)c2)cc1Nc1nc(-c2cccnc2)nc2c1cnn2C` showed an ED50 [1] of 0.000102 µM, an ED50 [2] of 0.577 µM and an ED50 [3] of 0.0205 µM. For the same molecule, the ED50 [4] was 0.575 µM, the ED50 [5] was 0.758 µM and the ED50 [6] was 6.29 µM. It also gave an ED50 [7] of 5.13 µM, an ED50 [8] of 0.00873 µM and an ED50 [9] of 2.75 µM. For the same molecule, the ED50 [10] was 0.102 µM, the ED50 [11] was 1 µM and the ED50 [12] was 0.535 µM. The ED50 [13] was 2.39 µM, the ED50 [14] was 11.3 µM and the ED50 [15] was 3.01 µM. It also gave an ED50 [16] of 29.5 µM, an ED50 [17] of 5.79 µM and an ED50 [18] of 0.00758 µM. It also gave an ED50 [19] of 11.7 µM, an ED50 [20] of 0.121 µM and an ED50 [21] of 18.9 µM. The ED50 [22] was 0.0211 µM, the ED50 [23] was 0.176 µM and the ED50 [24] was 15.7 µM. The ED50 [25] was 0.547 µM, the ED50 [26] was 1.13 µM and the ED50 [27] was 14 µM. It also gave an ED50 [28] of 7.56 µM, an ED50 [29] of 0.0644 µM and an ED50 [30] of 146 µM. The ED50 [31] was 0.0564 µM, the ED50 [32] was 18.6 µM and the ED50 [33] was 0.00439 µM. For the same molecule, the ED50 [34] was 3.14 µM, the ED50 [35] was 0.0041 µM and the ED50 [36] was 0.164 µM. It also gave an ED50 [37] of 5.62 µM, an ED50 [38] of 3.64 µM and an ED50 [39] of 95700 µM. It also gave an ED50 [40] of 3.33 µM, an ED50 [41] of 2.64 µM and an ED50 [42] of 277 µM. The ED50 [43] was 0.27 µM, the ED50 [44] was 0.064 µM and the ED50 [45] was 7.49 µM. It also gave an ED50 [46] of 2.7 µM.
`Cc1ccc(C(=O)Nc2cccc(C(F)(F)F)c2)cc1Nc1nc(-c2cccnc2)nc2nn(C)cc12` showed an ED50 [1] of 10 µM, an ED50 [2] of 8.92 µM and an ED50 [3] of 0.0548 µM. It also gave an ED50 [4] of 0.0644 µM, an ED50 [5] of 1.77 µM and an ED50 [6] of 9.32 µM. For the same molecule, the ED50 [7] was 0.0234 µM, the ED50 [8] was 0.000624 µM and the ED50 [9] was 6.31 µM. The ED50 [10] was 12.5 µM, the ED50 [11] was 18.2 µM and the ED50 [12] was 0.0765 µM. For the same molecule, the ED50 [13] was 0.018 µM, the ED50 [14] was 0.0527 µM and the ED50 [15] was 0.0503 µM. The ED50 [16] was 0.073 µM, the ED50 [17] was 0.0815 µM and the ED50 [18] was 0.258 µM. The ED50 [19] was 7.5 µM, the ED50 [20] was 0.125 µM and the ED50 [21] was 0.0881 µM. It also gave an ED50 [22] of 1.35 µM, an ED50 [23] of 0.0501 µM and an ED50 [24] of 0.0256 µM. For the same molecule, the ED50 [25] was 0.0114 µM, the ED50 [26] was 5.1 µM and the ED50 [27] was 0.0543 µM. The ED50 [28] was 8.47 µM, the ED50 [29] was 0.09 µM and the ED50 [30] was 97.9 µM. The ED50 [31] was 6.72 µM, the ED50 [32] was 50.1 µM and the ED50 [33] was 10.5 µM. The ED50 [34] was 9.29 µM, the ED50 [35] was 0.148 µM and the ED50 [36] was 2.75 µM. The ED50 [37] was 0.0113 µM, the ED50 [38] was 120 µM and the ED50 [39] was 0.0344 µM. For the same molecule, the ED50 [40] was 7.18 µM, the ED50 [41] was 7.41 µM and the ED50 [42] was 0.0183 µM. For the same molecule, the ED50 [43] was 3.41 µM, the ED50 [44] was 4.58 µM and the ED50 [45] was 0.051 µM. For the same molecule, the ED50 [46] was 1.71 µM.
